In patent US20100204263A1, “METHOD OF TREATING MULTIDRUG RESISTANT CANCERS” (priority 2007, published 2010):

What was measured:
Pgp [1] = biological target: T1, Pgp (Homo sapiens, UniProt P08183); details: human, MDCK-MDR1
Source text: MDR1-MDCK are Madin Darby Canine Kidney cells transfected with the human multi-drug resistance gene. Confluent monolayers made from these cells can be used to access a test compound's potential role as a P-gp substrate. The assay set up is similar to the CaCo-2 assay.
(§1) Both the Caco-2 and MDR1-MDCK cells were used for this model.

Pgp [2] = biological target: T1, Pgp; details: human, Caco-2
Source text: as §1

[3] = system: HL60/VCR (HL60/MDR), a cell line selected for resistance to vincristine; assay: WST-1 cell proliferation assay, HL60/VCR; details: for Fold Change in IC50: HL60/MDR vs HL60; for IC50: Homo sapiens, HL60/VCR, read-out: IC50 HL60/MDR
Procedure: (§2) The HL60NCR resistant cell line has been characterized with over-expression of the multidrug resistant protein (MDR; p-glycoprotein). The over-expression ratio (level of MDR in resistant cell line over level of MDR in the parental cell line) is 8 fold with a 10 fold increase in pgp function. Pgp surface expression was measured by flow cytometry with the MRK16 antibody and Pgp function with the generic substrate, Rh123.
(§3) WST-1 is a water-soluble tetrazolium salt that can be used for cell proliferation or cell viability assays. The rate of WST-1 cleavage by mitochondrial dehydrogenases correlates with the number of viable cells in the culture. WST-1 is added directly to the cells ( 1/10th of the culture volume) and absorbance at 450 nm can be measured using an ELISA plate reader following a short incubation at 37° C.

[4] = system: HL60 (human promyelocytic leukemia) cells; assay: WST-1 cell proliferation assay, HL60; format: cell-based; details: HL-60, wild-type HL60, WST-1, read-out: IC50 HL60
Procedure: as §2, §3

[5] = system: secondary AML patient sample cells; assay: Drug transport (CsA modulation of uptake) in secondary AML patient cells; format: cell-based, human; details: for increase of uptake by Cyclosporin A, mean value: 22 secondary AML samples; for CsA Modulation of Uptake: D-value; for number of patient samples with uptake increased by ≧10% by Cyclosporin A: of 22 secondary AML samples
Procedure: The expression and function of Pgp, MRP-1 and BCRP was measured in cells collected from patients with secondary AML. Pgp, MRP-1 and BCRP expression was measured by flow cytometry with the MRK16, MRPm6 and BXP21 antibodies, and function by modulation of uptake of the fluorescent substrates DiOC2(3), rhodamine-123 and pheophorbide A by PSC-833, MK571 and FTC, respectively, all measured by the Kolmogorov-Smirnov statistic, generating D-values.

T1 sequence (P08183 whole entry): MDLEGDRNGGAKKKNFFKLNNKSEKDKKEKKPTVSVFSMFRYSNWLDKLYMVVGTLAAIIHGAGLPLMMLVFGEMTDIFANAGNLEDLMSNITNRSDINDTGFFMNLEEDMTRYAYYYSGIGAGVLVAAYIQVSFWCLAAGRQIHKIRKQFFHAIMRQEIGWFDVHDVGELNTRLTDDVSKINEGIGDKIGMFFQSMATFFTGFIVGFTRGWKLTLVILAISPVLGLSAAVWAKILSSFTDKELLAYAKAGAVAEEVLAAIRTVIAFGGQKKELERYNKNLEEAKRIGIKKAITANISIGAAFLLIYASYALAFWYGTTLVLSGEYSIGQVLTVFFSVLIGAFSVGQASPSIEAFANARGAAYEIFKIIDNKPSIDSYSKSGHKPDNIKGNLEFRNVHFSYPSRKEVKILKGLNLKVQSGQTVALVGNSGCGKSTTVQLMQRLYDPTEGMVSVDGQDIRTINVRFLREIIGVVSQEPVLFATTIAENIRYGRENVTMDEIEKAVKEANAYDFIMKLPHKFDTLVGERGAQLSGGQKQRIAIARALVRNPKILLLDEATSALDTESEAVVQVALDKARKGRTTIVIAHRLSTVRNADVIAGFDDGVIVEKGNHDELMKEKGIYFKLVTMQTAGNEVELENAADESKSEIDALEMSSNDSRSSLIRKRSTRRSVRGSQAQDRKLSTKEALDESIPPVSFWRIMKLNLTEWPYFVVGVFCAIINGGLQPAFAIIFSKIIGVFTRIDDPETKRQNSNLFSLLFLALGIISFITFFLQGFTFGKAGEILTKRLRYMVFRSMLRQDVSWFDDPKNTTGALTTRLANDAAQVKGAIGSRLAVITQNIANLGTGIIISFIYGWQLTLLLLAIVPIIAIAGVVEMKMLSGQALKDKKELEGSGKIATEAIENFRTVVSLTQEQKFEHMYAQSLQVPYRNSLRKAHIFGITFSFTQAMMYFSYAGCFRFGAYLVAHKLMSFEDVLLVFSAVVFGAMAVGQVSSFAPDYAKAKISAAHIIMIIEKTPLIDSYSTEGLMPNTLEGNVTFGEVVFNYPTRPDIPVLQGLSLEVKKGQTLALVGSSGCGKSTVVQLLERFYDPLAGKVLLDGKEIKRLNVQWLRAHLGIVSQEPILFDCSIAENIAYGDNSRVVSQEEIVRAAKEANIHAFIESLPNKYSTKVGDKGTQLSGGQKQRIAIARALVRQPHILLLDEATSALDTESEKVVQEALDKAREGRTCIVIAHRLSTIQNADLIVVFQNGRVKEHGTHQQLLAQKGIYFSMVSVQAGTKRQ

| Compound | Digoxin Efflux (efflux/influx ratio), MDR1-MDCK (Pgp [1]) | Digoxin Efflux (efflux/influx ratio), Caco-2 (Pgp [2]) | Fold Change in IC50 [3] | IC50 [3] [nM] | IC50 [4] [nM] | increase of uptake by Cyclosporin A, mean value [5] [%] | CsA Modulation of Uptake ([5]; Pt 1) | CsA Modulation of Uptake ([5]; Pt 2) | CsA Modulation of Uptake ([5]; Pt 3) | CsA Modulation of Uptake ([5]; Pt 4) | CsA Modulation of Uptake ([5]; Pt 5) | CsA Modulation of Uptake ([5]; Pt 6) | CsA Modulation of Uptake ([5]; Pt 7) | CsA Modulation of Uptake ([5]; Pt 8) | CsA Modulation of Uptake ([5]; Pt 9) | CsA Modulation of Uptake ([5]; Pt 10) | CsA Modulation of Uptake ([5]; Pt 11) | CsA Modulation of Uptake ([5]; Pt 12) | CsA Modulation of Uptake ([5]; Pt 13) | CsA Modulation of Uptake ([5]; Pt 14) | further results |
| --- | --- | --- | --- | --- | --- | --- | --- | --- | --- | --- | --- | --- | --- | --- | --- | --- | --- | --- | --- | --- | --- |
| C[C@H]1O[C@@H](O[C@H]2[C@@H](O)C[C@H](O[C@H]3[C@@H](O)C[C@H](O[C@H]4CC[C@@]5(C)[C@H](CC[C@@H]6[C@@H]5C[C@@H](O)[C@]5(C)[C@@H](C7=CC(=O)OC7)CC[C@]65O)C4)O[C@@H]3C)O[C@@H]2C)C[C@H](O)[C@@H]1O [Digoxin, digoxin] | 70 + 11 | 10.6 ± 1.4 |  |  |  |  |  |  |  |  |  |  |  |  |  |  |  |  |  |  |  |
| COc1cccc2c1C(=O)c1c(O)c3c(c(O)c1C2=O)C[C@@](O)(C(=O)CO)C[C@@H]3O[C@H]1C[C@H](N)[C@H](O)[C@H](C)O1 [Doxorubicin, doxorubicin] |  |  | 4.87 | 161 | 33 |  |  |  |  |  |  |  |  |  |  |  |  |  |  |  |  |
| CC(=O)[C@]1(O)Cc2c(O)c3c(c(O)c2[C@@H](O[C@H]2C[C@H](N)[C@H](O)[C@H](C)O2)C1)C(=O)c1ccccc1C3=O [Idarubicin, idarubicin] |  |  |  |  |  | 7 | 0 | 0.23 | 0.22 | 0.17 | 0 | 0.21 | 0.21 | 0.16 | 0.18 | 0.02 | 0.05 | 0.08 | 0.06 | 0.28 | CsA Modulation of Uptake ([5]; Pt 15): 0.16; CsA Modulation of Uptake ([5]; Pt 16): 0.03; CsA Modulation of Uptake ([5]; Pt 17): 0; CsA Modulation of Uptake ([5]; Pt 18): 0; CsA Modulation of Uptake ([5]; Pt 19): 0.17; CsA Modulation of Uptake ([5]; Pt 20): 0.23; CsA Modulation of Uptake ([5]; Pt 21): 0.19; CsA Modulation of Uptake ([5]; Pt 22): 0.31; number of patient samples with uptake increased by ≧10% by Cyclosporin A [5]: 12 patient samples |
| O=C1c2c(O)ccc(O)c2C(=O)c2c(NCCNCCO)ccc(NCCNCCO)c21 [Mitoxantrone, mitoxantrone] |  |  | 390.7 | 3110 | 8 |  |  |  |  |  |  |  |  |  |  |  |  |  |  |  |  |
| CO[C@@H]1[C@H](N(C)C(=O)c2ccccc2)C[C@H]2O[C@]1(C)n1c3ccccc3c3c4c(c5c6ccccc6n2c5c31)C(=O)NC4 [PKC412] | 6.4 ± 0.8 | 1.8 ± 1.3 |  |  |  |  |  |  |  |  |  |  |  |  |  |  |  |  |  |  |  |
| amonafide L-malate |  |  |  |  |  | −2.5 | 0 | 0.09 | 0 | 0.02 | 0 | 0.1 | 0.31 | 0.07 | 0 | 0.18 | 0 | 0 | 0.03 | 0.05 | CsA Modulation of Uptake ([5]; Pt 15): 0; CsA Modulation of Uptake ([5]; Pt 16): 0; CsA Modulation of Uptake ([5]; Pt 17): 0; CsA Modulation of Uptake ([5]; Pt 18): 0; CsA Modulation of Uptake ([5]; Pt 19): 0; CsA Modulation of Uptake ([5]; Pt 20): 0.15; CsA Modulation of Uptake ([5]; Pt 21): 0.43; CsA Modulation of Uptake ([5]; Pt 22): 0; substrate status for the MDR proteins expressed in AML cells ([5]; in relation to other topoisomerase 2 inhibitors): poor substrate; number of patient samples with uptake increased by ≧10% by Cyclosporin A [5]: 5 patient samples |
